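Five compound concentrations were applied to cells in 96-well plates for 48 hours; endpoints were derived by simple linear interpolation of the resulting dose-response curve. GI50 = concentration required for 50% inhibition of growth.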 Activity calls are given as the source filed them. Cut-off read from the data, not from the text of the source: active = GI50 up to about 1.1 µM and inactive = higher.
Columns and labels:
Test in all cases: NCI tumour cell line growth inhibition, 48 h
[1] = test system: SNB-75
[2] = test system: K562
[3] = test system: NCI-H460
[4] = test system: M14
[5] = test system: HT-29
[6] = test system: NCI-H522
[7] = test system: A549
[8] = test system: U-251
[9] = test system: ACHN
[10] = test system: SF-539
[11] = test system: KM12
[12] = test system: NCI/ADR-RES
[13] = test system: HOP-62
[14] = test system: OVCAR-5
[15] = test system: MDA-MB-231
[16] = test system: COLO 205
[17] = test system: MDA-MB-435
[18] = test system: OVCAR-3
[19] = test system: SNB-19
[20] = test system: IGROV-1
[21] = test system: RPMI-8226
[22] = test system: A498
[23] = test system: SN12C
[24] = test system: UACC-62
[25] = test system: T47D
[26] = test system: SF-295
[27] = test system: OVCAR-8
[28] = test system: SF-268
[29] = test system: LOX IMVI
[30] = test system: SK-MEL-28
[31] = test system: SK-OV-3
[32] = test system: DU-145
[33] = test system: SK-MEL-2
[34] = test system: HCT-15
[35] = test system: SW-620
[36] = test system: PC-3
[37] = test system: CAKI-1
[38] = test system: SK-MEL-5
[39] = test system: HCT-116
[40] = test system: MOLT-4
[41] = test system: RXF 393
[42] = test system: UO-31
[43] = test system: BT-549
[44] = test system: MCF7
[45] = test system: CCRF-CEM
[46] = test system: Malme-3M
[47] = test system: EKVX
[48] = test system: UACC-257
[49] = test system: Hs-578T
[50] = test system: NCI-H23
[51] = test system: OVCAR-4
[52] = test system: HCC 2998
[53] = test system: TK-10
[54] = test system: HL-60
[55] = test system: SR
[56] = test system: NCI-H226
[57] = test system: MDA-N
[58] = test system: HOP-92
[59] = test system: 786-0

Measured: GI50

COc1ccc(N2CN(C)CSC2=S)cc1
76 µM: [34]
inactive: [1] > 100 µM | [2] 21.1 µM | [3] 76 µM | [4] 38.5 µM | [5] > 100 µM | [6] 29.7 µM | [7] > 100 µM | [8] > 100 µM | [9] > 100 µM | [10] > 100 µM | [11] > 100 µM | [12] > 100 µM | [13] 25.9 µM | [14] 71.9 µM | [15] > 100 µM | [16] > 100 µM | [17] 43.3 µM | [18] 4.73 µM | [19] > 100 µM | [20] 77.6 µM | [21] 32.3 µM | [22] > 100 µM | [23] > 100 µM | [24] > 100 µM | [25] 54 µM | [26] 23.4 µM | [27] > 100 µM | [28] 97.9 µM | [29] 86.7 µM | [30] > 100 µM | [31] 27.1 µM | [32] > 100 µM | [33] > 100 µM | [35] 43 µM | [36] > 100 µM | [37] > 100 µM | [38] > 100 µM | [39] 71.3 µM | [40] 76.7 µM | [41] > 100 µM | [42] > 100 µM | [43] 75.5 µM | [44] 89.7 µM | [45] 13.1 µM | [46] > 100 µM | [47] > 100 µM | [48] > 100 µM | [49] > 100 µM | [50] > 100 µM | [51] > 100 µM | [52] > 100 µM | [53] > 100 µM | [54] 72.8 µM

COc1ccc2c(c1)OCC1(O)Cc3ccccc3OC21 (configuration not stated)
inactive: [1] > 100 µM | [2] > 100 µM | [4] > 100 µM | [5] > 100 µM | [6] > 100 µM | [7] > 100 µM | [8] > 100 µM | [9] > 100 µM | [10] > 100 µM | [11] > 100 µM | [12] > 100 µM | [13] > 100 µM | [14] > 100 µM | [15] > 100 µM | [16] > 100 µM | [17] > 100 µM | [18] > 100 µM | [20] > 100 µM | [21] > 100 µM | [22] > 100 µM | [23] > 100 µM | [24] > 100 µM | [25] > 100 µM | [26] > 100 µM | [27] > 100 µM | [55] > 100 µM | [28] > 100 µM | [56] > 100 µM | [29] > 100 µM | [31] > 100 µM | [32] > 100 µM | [33] > 100 µM | [35] > 100 µM | [36] > 100 µM | [57] > 100 µM | [37] > 100 µM | [38] > 100 µM | [39] > 100 µM | [40] 78.9 µM | [42] > 100 µM | [43] > 100 µM | [44] > 100 µM | [58] > 100 µM | [45] > 100 µM | [46] > 100 µM | [47] > 100 µM | [48] > 100 µM | [59] > 100 µM | [50] > 100 µM | [51] 49.3 µM | [52] > 100 µM | [53] > 100 µM
> 100 µM: [34]
